The values that follow come from patent US12404295B2, “(Hetero)aryl-methyl-thio-beta-D-galactopyranoside derivatives” (Idorsia Pharmaceuticals Ltd, priority 2019, dated 2025).

One assay deals with human Gal-1 (hGal-1) (Homo sapiens (Human), UniProt P09382). The assay is described as follows: competitive binding assay: biotinylated hGal-1 binding to microplate-adsorbed asialofetuin (ASF). Conditions: Table 15; read-out: IC50 (Galectin-1 inhibition). The essentials:
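Biotinylated human Gal-1 (300-1000 ng/mL) competes with serially diluted compound for binding to ASF-coated plates, 3 h at 4° C. Bound protein detected with streptavidin-peroxidase and ABTS substrate (spectrophotometric). IC50 given as mean of several measurements.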

Another assay has as its target human Gal-3 (hGal-3) (Homo sapiens (Human), UniProt P17931). Description: competitive binding assay: biotinylated hGal-3 binding to microplate-adsorbed asialofetuin (ASF). The procedure, abridged:
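Compounds serially diluted in DMSO compete with asialofetuin for biotinylated human Gal-3; plates are incubated 3 h at 4 °C, washed, then treated 1 h at 4 °C with streptavidin-peroxidase (80 ng/mL) and developed with ABTS. IC50 values are means of several measurements.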

Where [1] appears, read: Gal-3 inhibition, binding of biotinylated hGal-3 to ASF, mean values, read-out: IC50.
Setting [2] is: Table 5, read-out: IC50 (Gal-3 inhibition).
Setting [3] is: Table 11, read-out: IC50 (Gal-3 inhibition).
The mark [4] stands for this setting: Table 10, 2-OMe-Gal inhibitors, read-out: IC50 (Gal-3 inhibition).

Read-outs that look alike come from different tables or passages of the source.

Chain of human Gal-3 (hGal-3) (P17931 whole entry): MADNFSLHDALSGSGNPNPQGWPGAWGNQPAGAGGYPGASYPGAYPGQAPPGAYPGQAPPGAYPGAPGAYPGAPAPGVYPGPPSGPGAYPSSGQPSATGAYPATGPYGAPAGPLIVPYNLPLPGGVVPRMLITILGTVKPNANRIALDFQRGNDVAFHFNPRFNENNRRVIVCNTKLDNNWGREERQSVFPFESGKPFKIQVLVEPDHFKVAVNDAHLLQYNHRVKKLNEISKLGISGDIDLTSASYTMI
Chain of human Gal-1 (hGal-1) (P09382 whole entry): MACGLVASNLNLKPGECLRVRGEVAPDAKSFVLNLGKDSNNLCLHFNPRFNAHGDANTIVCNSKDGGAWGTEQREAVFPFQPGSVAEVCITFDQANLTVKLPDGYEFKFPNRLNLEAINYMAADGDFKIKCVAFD

Consider `CC(C)(O)[C@H](S[C@@H]1O[C@H](CO)[C@H](O)[C@H](n2cc(-c3cc(F)c(F)c(F)c3)nn2)[C@H]1O)c1cccnc1C(F)(F)F` [Example 2.31.118R., (2S,3R,4S,5R,6R)-2-(((R)-2-hydroxy-2-methyl-1-(2-(trifluoromethyl)pyridin-3-yl)propyl)thio)-6-(hydroxymethyl)-4-(4-(3,4,5-trifluorophenyl)-1H-1,2,3-triazol-1-yl)tetrahydro-2H-pyran-3,5-diol], for which the IC50 came out at 640 nM on human Gal-1 (hGal-1) and 210 nM at human Gal-3 (hGal-3) (setting [1]).
In the same order, the values of `CC(C)(O)[C@@H](S[C@@H]1O[C@H](CO)[C@H](O)[C@H](n2cc(-c3cc(F)c(F)c(F)c3)nn2)[C@H]1O)c1ccccc1Cl` [Example 2.31.111S., (2S,3R,4S,5R,6R)-2-(((S)-1-(2-Chlorophenyl)-2-hydroxy-2-methylpropyl)thio)-6-(hydroxymethyl)-4-(4-(3,4,5-trifluorophenyl)-1H-1,2,3-triazol-1-yl)tetrahydro-2H-pyran-3,5-diol] are 30900 nM and 4300 nM.
`Cc1c(F)cc(-c2cn([C@H]3[C@@H](O)[C@@H](CO)O[C@@H](SC(c4ccccc4C(F)(F)F)C(C)(C)O)[C@@H]3O)nn2)cc1F` (stereo partly drawn) [Example 3.31.112., (2S,3R,4S,5R,6R)-4-(4-(3,5-Difluoro-4-methylphenyl)-1H-1,2,3-triazol-1-yl)-2-((2-hydroxy-2-methyl-1-(2-(trifluoromethyl)phenyl)propyl)thio)-6-(hydroxymethyl)tetrahydro-2H-pyran-3,5-diol]: the IC50 was determined as 4900 nM at human Gal-1 (hGal-1) and 210 nM on human Gal-3 (hGal-3) (setting [1]).
Turning to `CO[C@@H]1[C@@H](n2cc(-c3cc(F)c(F)c(F)c3)nn2)[C@@H](O)[C@@H](CO)O[C@H]1S[C@H](c1ncccc1C)C1(O)CCS(=O)(=O)CC1` [Example 2.66.126R.I., 4-Hydroxy-4-((R)-(((2S,3R,4S,5R,6R)-5-hydroxy-6-(hydroxymethyl)-3-methoxy-4-(4-(3,4,5-trifluorophenyl)-1H-1,2,3-triazol-1-yl)tetrahydro-2H-pyran-2-yl)thio)(3-methylpyridin-2-yl)methyl)tetrahydro-2H-thiopyran 1,1-dioxide], the concentration for half-maximal inhibition (IC50) on human Gal-1 (hGal-1) was 90 nM; on human Gal-3 (hGal-3) (Table 9, 2-OMe-Gal inhibitors, read-out: IC50 (Gal-3 inhibition)), 60 nM.
As to `OC[C@H]1O[C@@H](S[C@@H](c2ncccc2C(F)(F)F)C2(O)CCOCC2)[C@H](O)[C@@H](n2cc(-c3cc(F)c(F)c(F)c3)nn2)[C@H]1O` [Example 2.41.125S., (2R,3R,4S,5R,6S)-2-(Hydroxymethyl)-6-(((S)-(4-hydroxytetrahydro-2H-pyran-4-yl)(3-(trifluoromethyl)pyridin-2-yl)methyl)thio)-4-(4-(3,4,5-trifluorophenyl)-1H-1,2,3-triazol-1-yl)tetrahydro-2H-pyran-3,5-diol], the values for the IC50 on human Gal-1 (hGal-1) and on human Gal-3 (hGal-3) (setting [2]) were 7470 nM and 1830 nM, respectively.
`CO[C@@H]1[C@@H](n2cc(-c3cc(F)c(F)c(F)c3)nn2)[C@@H](O)[C@@H](CO)O[C@H]1S[C@H](c1noc(C2CC2)c1C)C1(O)CCC(F)(F)CC1` [Example 2.44.145R.I., (2R,3R,4S,5R,6S)-6-(((R)-(5-Cyclopropyl-4-methylisoxazol-3-yl)(4,4-difluoro-1-hydroxycyclohexyl)methyl)thio)-2-(hydroxymethyl)-5-methoxy-4-(4-(3,4,5-trifluorophenyl)-1H-1,2,3-triazol-1-yl)tetrahydro-2H-pyran-3-ol]: the half-maximal inhibitory concentration (IC50) amounted to 1200 nM at human Gal-1 (hGal-1) and 250 nM at human Gal-3 (hGal-3) (setting [3]).
In the same order, the values of `CO[C@@H]1[C@@H](n2cc(-c3cc(F)c(F)c(F)c3)nn2)[C@@H](O)[C@@H](CO)O[C@H]1S[C@H](c1nc(C)c(C)nc1C)C1(O)CCC(F)(F)CC1` [Example 2.44.119R.I., (2R,3R,4S,5R,6S)-6-(((R)-(4,4-Difluoro-1-hydroxycyclohexyl)(3,5,6-trimethylpyrazin-2-yl)methyl)thio)-2-(hydroxymethyl)-5-methoxy-4-(4-(3,4,5-trifluorophenyl)-1H-1,2,3-triazol-1-yl)tetrahydro-2H-pyran-3-ol] are 450 nM and 90 nM.
In the same order, the values of `CO[C@@H]1[C@@H](n2cc(-c3cc(F)c(F)c(F)c3)nn2)[C@@H](O)[C@@H](CO)O[C@H]1SC(c1nccc(C(F)(F)F)c1C)C1(O)CCC(F)(F)CC1` (stereo partly drawn) [Example 2.44.147.I., (2R,3R,4S,5R,6S)-6-(((4,4-Difluoro-1-hydroxycyclohexyl)(3-methyl-4-(trifluoromethyl)pyridin-2-yl)methyl)thio)-2-(hydroxymethyl)-5-methoxy-4-(4-(3,4,5-trifluorophenyl)-1H-1,2,3-triazol-1-yl)tetrahydro-2H-pyran-3-ol] are 1240 nM and 240 nM.
Regarding `Cc1noc(C2CC2)c1C(S[C@@H]1O[C@H](CO)[C@H](O)[C@H](n2cc(-c3cc(F)c(F)c(F)c3)nn2)[C@H]1O)C1(O)CCCCC1` (stereo partly drawn) [Example 2.39.128., (2S,3R,4S,5R,6R)-2-(((5-Cyclopropyl-3-methylisoxazol-4-yl)(1-hydroxycyclohexyl)methyl)thio)-6-(hydroxymethyl)-4-(4-(3,4,5-trifluorophenyl)-1H-1,2,3-triazol-1-yl)tetrahydro-2H-pyran-3,5-diol], the 50% inhibitory concentration (IC50) at human Gal-1 (hGal-1) was 1110 nM; at human Gal-3 (hGal-3) (setting [2]) it was 210 nM.
On to `CO[C@@H]1[C@@H](n2cc(-c3cc(F)c(F)c(F)c3)nn2)[C@@H](O)[C@@H](CO)O[C@H]1S[C@H](c1nccc(C(F)(F)F)c1C)C1(O)CCC(F)(F)CC1` [Example 2.44.147R.I., (2R,3R,4S,5R,6S)-6-(((R)-(4,4-Difluoro-1-hydroxycyclohexyl)(3-methyl-4-(trifluoromethyl)pyridin-2-yl)methyl)thio)-2-(hydroxymethyl)-5-methoxy-4-(4-(3,4,5-trifluorophenyl)-1H-1,2,3-triazol-1-yl)tetrahydro-2H-pyran-3-ol], for which the figures for the half-inhibitory concentration (IC50) at human Gal-1 (hGal-1) and at human Gal-3 (hGal-3) (setting [3]) were 760 nM and 190 nM, respectively.
For `CO[C@@H]1[C@@H](n2cc(-c3cc(F)c(F)c(F)c3)nn2)[C@@H](O)[C@@H](CO)O[C@H]1SC(c1nccnc1Cl)C1(O)CCC(F)(F)CC1` (stereo partly drawn) [Example 2.44.133.I., (2R,3R,4S,5R,6S)-6-(((3-Chloropyrazin-2-yl)(4,4-difluoro-1-hydroxycyclohexyl)methyl)thio)-2-(hydroxymethyl)-5-methoxy-4-(4-(3,4,5-trifluorophenyl)-1H-1,2,3-triazol-1-yl)tetrahydro-2H-pyran-3-ol], the results for the half-inhibitory concentration (IC50) on human Gal-1 (hGal-1) and on human Gal-3 (hGal-3) (setting [4]) were 1220 nM and 170 nM, respectively.
As for `CN1CCC(O)(C(S[C@@H]2O[C@H](CO)[C@H](O)[C@H](n3cc(-c4cc(F)c(F)c(F)c4)nn3)[C@H]2O)c2ccccc2C(F)(F)F)CC1` (stereo partly drawn) [Example 2.40.112., (2S,3R,4S,5R,6R)-2-(((4-Hydroxy-1-methylpiperidin-4-yl)(2-(trifluoromethyl)phenyl)methyl)thio)-6-(hydroxymethyl)-4-(4-(3,4,5-trifluorophenyl)-1H-1,2,3-triazol-1-yl)tetrahydro-2H-pyran-3,5-diol], the IC50 on human Gal-1 (hGal-1) was 420 nM; on human Gal-3 (hGal-3) (setting [2]), 130 nM.
As to `CO[C@@H]1[C@@H](n2cc(-c3cc(F)c(F)c(F)c3)nn2)[C@@H](O)[C@@H](CO)O[C@H]1S[C@@H](c1nccc(Cl)c1Cl)C1(O)CCC(F)(F)CC1` (single isomer, unassigned) [Example 2.44.143R.I.], the concentration for half-maximal inhibition (IC50) at human Gal-1 (hGal-1) was determined as 860 nM; at human Gal-3 (hGal-3) (setting [3]), 70 nM.
For `CC(C)Cc1ccccc1[C@H](S[C@@H]1O[C@H](CO)[C@H](O)[C@H](n2cc(-c3cc(F)c(F)c(F)c3)nn2)[C@H]1O)C(C)(C)O` [Example 2.31.107S., (2S,3R,4S,5R,6R)-2-(((S)-2-hydroxy-1-(2-isobutylphenyl)-2-methylpropyl)thio)-6-(hydroxymethyl)-4-(4-(3,4,5-trifluorophenyl)-1H-1,2,3-triazol-1-yl)tetrahydro-2H-pyran-3,5-diol], the values for the IC50 at human Gal-1 (hGal-1) and at human Gal-3 (hGal-3) (setting [1]) were 56600 nM and 950 nM, respectively.
As for `OC[C@H]1O[C@@H](S[C@@H](c2ncccc2C(F)(F)F)C2(O)CCC(F)(F)CC2)[C@H](O)[C@@H](n2cc(-c3cc(F)c(F)c(F)c3)nn2)[C@H]1O` [Example 2.44.125S., (2S,3R,4S,5R,6R)-2-(((S)-(4,4-Difluoro-1-hydroxycyclohexyl)(3-(trifluoromethyl)pyridin-2-yl)methyl)thio)-6-(hydroxymethyl)-4-(4-(3,4,5-trifluorophenyl)-1H-1,2,3-triazol-1-yl)tetrahydro-2H-pyran-3,5-diol], the half-inhibitory concentration (IC50) on human Gal-1 (hGal-1) is 3410 nM; on human Gal-3 (hGal-3) (setting [2]), 820 nM.
On to “(2S,3R,4S,5R,6R)-2-(((S)-(2,3-Dichlorophenyl)(4,4-difluoro-1-hydroxycyclohexyl)methyl)thio)-6-(hydroxymethyl)-4-(4-(3,4,5-trifluorophenyl)-1H-1,2,3-triazol-1-yl)tetrahydro-2H-pyran-3,5-diol [Example 2.44.113S.]”, for which the IC50 on human Gal-1 (hGal-1) turned out to be 56800 nM; at human Gal-3 (hGal-3) (setting [2]), 57500 nM.
As to `CCn1ncc(Cl)c1[C@@H](S[C@@H]1O[C@H](CO)[C@H](O)[C@H](n2cc(-c3cc(F)c(F)c(F)c3)nn2)[C@H]1OC)C1(O)CCC(F)(F)CC1` [Example 2.44.139R.I., (2R,3R,4S,5R,6S)-6-(((R)-(4-Chloro-1-ethyl-1H-pyrazol-5-yl)(4,4-difluoro-1-hydroxycyclohexyl)methyl)thio)-2-(hydroxymethyl)-5-methoxy-4-(4-(3,4,5-trifluorophenyl)-1H-1,2,3-triazol-1-yl)tetrahydro-2H-pyran-3-ol], the IC50 on human Gal-1 (hGal-1) stood at 540 nM; on human Gal-3 (hGal-3) (setting [4]) it was 320 nM.

The term IC50 denotes the midpoint of a concentration-inhibition curve.
